US7276531B2, “G-lactam derivatives as prostaglandin agonists” (Applied Research Systems ARS Holding N.V., priority 2003, dated 2007)

Tested on: mature mouse ovulation induction model
Assay: In vivo ovulation assay (mature mouse ovulation induction model)
Experimental: Ovulation induction activity of compounds of the invention was tested in a mature mouse ovulation induction model.
Mature 10-week-old CD-mice were used. Reagents were prepared as follows: PMSG (pregnant mare serum gonadotropin) (Calbiochem, cat #367222) and hCG (Serono) are diluted in PBS. PGE2 (Cayman, Ann Arbor Mich.) was dissolved in ethanol and diluted with 0.154 M […] Buffer (pH 8.0) to final concentration of ethanol of less than 3 percent. A compound of the invention (based on solubility) was pre-dissolved in ethanol, DMSO or other reagents. The compound of the invention was then diluted with saline or other diluents such as PBS or NP3S (5% N-methyl-pyrrolidinone/30% PEG400/25% PEG200/20% Propylene Glycol in saline). PMSG stimulates ovarian follicular development. After PMSG stimulation, the mature follicules can be stimulated to rupture and release oocytes by an ovulation trigger, such as hCG or a compound of the invention.
The following test protocol is employed for the test animals (typically 5 animals per test group). • Day 1: Inject 5 IU PMSG in 200 μl PBS (i.p. 15:00 PM) • Day 2: No administration • Day 3: Injection of ovulation trigger hCG (i.p.) or hCG replacement (PGE2 or compound of the invention, s.c., i.v. or oral route), 15:00 PM • Day 4: Eighteen hours after injections of the ovulation triggers, animals were sacrificed by CO2 asphyxiation and abdominal cavities were opened using fine scissors and forceps. Uterus, oviducts and ovaries were collected and placed in pre-labeled dishes containing phosphate buffered saline (PBS). The collected tissues were transferred to the laboratory and intact oviduct carefully dissected out from uterus and ovary under the dissection microscope. The dissected oviducts were placed on the glass microscopic slide and covered with another slide. Two slides were taped on two edges. The numbers of ovulated ova in the oviducts were counted using upright microscope with 4× objective and recorded. […]

For `CCCC/C(C)=C/C=C\[C@H]1CCC(=O)N1CCc1ccc(C(=O)O)cc1` [Example 3, 4-(2-{(2R)-2-[(1Z,3E)-4-methylocta-1,3-dienyl]-5-oxopyrrolidin-1-yl}ethyl)benzoic acid], the ED50 (Mus musculus, po, read-out: calculated ED50 (dose of drug which produces 50% of its effect), ovulation, p.o. administration route, mice) was 1 mg/kg and the “number of ova released (average)” value (oral administration, 20 mg/kg, mature mice) was 20.
